Test results as given in paper PMC11292009, “Mapping protein binding sites by photoreactive fragment pharmacophores” (Communications Chemistry, 2024).

What was measured:
Type in all cases: binding
[1] = test system: carbonic anhydrase II (CA); experiment: Intact protein MS photoaffinity labeling screen, carbonic anhydrase; settings: intact protein MS after 10 min irradiation
Procedure, shortened: (§1)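 Plate format, one fragment/well; 15 min incubation with protein for non-covalent complex formation; direct intact-protein MS read from plate; labeling % from adduct mass additions.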

[2] = test system: T1, BRD4-BD1; experiment: Intact MS photoaffinity labeling screen, BRD4-BD1 (302 nm, LCMS-TOF); settings: for experimental hit status BRD4-BD1: 0/1 flag; for MS labeling percentage, BRD4: BRD4-BD1, 302 nm 10 min; for BRD4-BD1: experimental hit status flag (0/1)
T1 construct: screened the PhP library against the first bromodomain of BRD4 (BRD4-BD1); purchased GSK/GenScript
Procedure, shortened: (§2)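 Labeling detected as mass additions in deconvoluted intact-protein LCMS-TOF spectra. Protein at 1 μM in PBS was first mixed with one fragment per well on ice for 15 min, followed by 10 min UV exposure at 302 nm.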

[3] = test system: T2, KRas^G12D; experiment: Intact MS photoaffinity labeling screen, KRas G12D (302 nm, LCMS-TOF); settings: for experimental hit status KRAS-G12D: 0/1 flag; for MS labeling percentage, KRas: KRas G12D, 302 nm 10 min; for KRAS-G12D: experimental hit status flag (0/1)
T2 construct: purchased GSK/GenScript
Procedure, shortened: as §2

[4] = test system: lysozyme (Lyo); experiment: Intact protein MS photoaffinity labeling screen, lysozyme; settings: intact protein MS after 10 min irradiation
Procedure, shortened: as §1

[5] = test system: myoglobin (Myo); experiment: Intact protein MS photoaffinity labeling screen, myoglobin; settings: intact protein MS after 10 min irradiation
Procedure, shortened: as §1

[6] = test system: T3, STAT5B-NTD; experiment: Intact MS photoaffinity labeling screen, STAT5B-NTD (365 nm, UHPLC-MS); settings: for experimental hit status STAT5B-NTD: 0/1 flag; for MS labeling percentage, STAT5B: STAT5B-NTD, 365 nm 10 min, no photocatalyst; for STAT5B-NTD: experimental hit status flag (0/1);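 for MS labeling percentage, STAT5B: 0.17 µL of 100 mM DMSO fragment stock added to the protein sample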
T3 construct: His-SUMO (N, cleaved yes); made in house; host or cells: E. coli BL21 RILP
Procedure, shortened: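 Intact-protein labeling detected by UHPLC-MS in positive ion mode over m/z 100–2000. Samples were first photo-crosslinked at 365 nm for 10 min at 4 °C. Before irradiation, 7 µM STAT5B in PBS pH 7.4 was pre-incubated with probe for 1 h in the dark at room temperature.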

[7] = test system: T3, STAT5B-NTD; experiment: Intact MS labeling screen, STAT5B-NTD conjugated with photocatalyst Ir-G2-PEG3-COOH (450 nm); settings: 450 nm 10 min;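 note: 0.14 µL of 100 mM DMSO fragment stock added to the conjugate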
Procedure, shortened: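 Ir-G2-PEG3-COOH photocatalyst (10 eq) activated 30 min with EDC/NHS/BOP, then conjugated to STAT5B-NTD (7 µM) overnight at RT or 1 h at 37 °C in dark. PhP added, 1 h dark, then 450 nm irradiation 10 min at 4 °C; labeling read by intact LC-MS, positive ion mode, m/z 100–2000.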

[8] = PhP library sheet "PhP", binary flag printed as 0 or 1, key not given
[9] = hit flag 1/0, sheet PhP, photoaffinity labeling screen
[10] = sheet PhP, experimental hit status flag given as 0 or 1

SMILES | MS labeling percentage, CA [1] [%] | MS labeling percentage, BRD4 [2] [%] | MS labeling percentage, KRas [3] [%] | MS labeling percentage, Lyo [4] [%] | MS labeling percentage, Myo [5] [%] | MS labeling percentage, STAT5B [6] [%] | MS labeling percentage, STAT5B+photocat [7] [%] | also measured
CC1(CCC(=O)NCCCCN2CCOCC2)N=N1 [PhP022, N1=NC1(C)CCC(=O)NCCCCN2CCOCC2] | 0.5 | 0.6 | 0.5 | 0 | 0.2 | 1 | 0.4 | experimental hit status BRD4-BD1 [2]: 0; experimental hit status KRAS-G12D [3]: 0; experimental hit status STAT5B-NTD [6]: 0
CC1(CCC(=O)NCCN2CCN(c3ccc(C(F)(F)F)cn3)CC2)N=N1 [PhP096, N1=NC1(C)CCC(=O)NCCN2CCN(CC2)c3ccc(cn3)C(F)(F)F] | 0 | 0.3 | 0 | 0 | 0.1 | 0 | 1.1 | BRD4-BD1 (experimental hit status) [2, 8]: 0; KRAS-G12D (experimental hit status) [3, 8]: 0; STAT5B-NTD (experimental hit status) [6, 8]: 0
CN1C(=O)COc2ccc(NC(=O)CCC3(C)N=N3)cc21 [PhP007, O1CC(=O)N(C)c(c12)cc(cc2)NC(=O)CCC3(C)N=N3] | 0.2 | 0.4 | 0.2 | 1.8 | 0.1 | 1 | 12.7 | BRD4-BD1 [2]: 0; KRAS-G12D [3]: 0; STAT5B-NTD [6]: 0
Cn1nccc1C(=O)NCCNC(=O)CCC1(C)N=N1 [PhP095, Cn1nccc1C(=O)NCCNC(=O)CCC2(C)N=N2] | 0.2 | 0.4 | 0.1 | 0 | 0.1 | 0 | 2.4 | BRD4-BD1 (experimental hit status) [2, 8]: 0; KRAS-G12D (experimental hit status) [3, 8]: 0; STAT5B-NTD (experimental hit status) [6, 8]: 0
CCOC(=O)[C@H](NC(=O)CCC1(C)N=N1)c1ccccc1 [PhP005, c1ccccc1[C@H](C(=O)OCC)NC(=O)CCC2(C)N=N2] | 0.1 | 0.1 | 0 | 0 | 0.1 | 2 | 1.5 | BRD4-BD1 [2]: 0; KRAS-G12D [3]: 0; STAT5B-NTD [6]: 0
Cc1nc(NC(=O)CCC2(C)N=N2)c2cnn(-c3ccc(F)cc3)c2n1 [PhP041, c1cc(F)ccc1-n(nc2)c(c23)nc(C)nc3NC(=O)CCC4(C)N=N4] | 0.3 | 0.2 | 0.3 | 0 | 0 | 0 | 10.6 | BRD4-BD1 (experimental hit status) [2, 9]: 0; KRAS-G12D (experimental hit status) [3, 9]: 0; STAT5B-NTD (experimental hit status) [6, 9]: 0
Cn1ccnc1-c1cc(NC(=O)CCC2(C)N=N2)n[nH]1 [PhP043, Cn1ccnc1-c2cc(n[nH]2)NC(=O)CCC3(C)N=N3] | 0.5 | 0.8 | 0.3 | 0 | 0.1 | 1 | 0 | BRD4-BD1 (experimental hit status) [2, 9]: 0; KRAS-G12D (experimental hit status) [3, 9]: 0; STAT5B-NTD (experimental hit status) [6, 9]: 0

The next lines start with results.

MS labeling percentage, CA [1] [%] | SMILES | MS labeling percentage, BRD4 [2] [%] | MS labeling percentage, KRas [3] [%] | MS labeling percentage, Lyo [4] [%] | MS labeling percentage, Myo [5] [%] | MS labeling percentage, STAT5B [6] [%] | MS labeling percentage, STAT5B+photocat [7] [%] | also measured
0.7 | Cc1ccc2[nH]c(CNC(=O)CCC3(C)N=N3)nc2c1 [PhP030, c1cc(C)cc(c12)nc([nH]2)CNC(=O)CCC3(C)N=N3] | 1.2 | 1.4 | 0 | 0.4 | 0 | 0.7 | experimental hit status BRD4-BD1 [2]: 0; experimental hit status KRAS-G12D [3]: 0; experimental hit status STAT5B-NTD [6]: 0
0.5 | COc1ccc(CNC(=O)CCC2(C)N=N2)cn1 [PhP039, COc1ccc(cn1)CNC(=O)CCC2(C)N=N2] | 0.5 | 0.2 | 0 | 0.3 | 1 | 1.3 | BRD4-BD1 (experimental hit status) [2, 9]: 0; KRAS-G12D (experimental hit status) [3, 9]: 0; STAT5B-NTD (experimental hit status) [6, 9]: 0
0.2 | COC(=O)[C@@H](Cc1c[nH]c2ccccc12)NC(=O)CCC1(C)N=N1 [PhP036, N1=NC1(C)CCC(=O)N[C@@H](C(=O)OC)Cc(c[nH]2)c(c23)cccc3] | 0.6 | 1 | 0.4 | 0 | 2 | 5.4 | experimental hit status BRD4-BD1 [2]: 0; experimental hit status KRAS-G12D [3]: 0; experimental hit status STAT5B-NTD [6]: 0
0.2 | CC1(CCC(=O)NCCCc2nc3ccccc3[nH]2)N=N1 [PhP069, N1=NC1(C)CCC(=O)NCCCc(n2)[nH]c(c23)cccc3] | 1.5 | 0.5 | 0 | 0.2 | 1 | 0.8 | BRD4-BD1 (experimental hit status) [2, 10]: 0; KRAS-G12D (experimental hit status) [3, 10]: 0; STAT5B-NTD (experimental hit status) [6, 10]: 0
0 | CC1(CCC(=O)NCc2ccc(N3CCC(CO)CC3)cc2)N=N1 [PhP010, N1=NC1(C)CCC(=O)NCc2ccc(cc2)N3CCC(CO)CC3] | 0.3 | 0.5 | 0 | 0 | 1 | 0 | BRD4-BD1 [2]: 0; KRAS-G12D [3]: 0; STAT5B-NTD [6]: 0
0 | Cc1nc2ccccc2n1CCNC(=O)CCC1(C)N=N1 [PhP073, c1cccc(c12)n(c(n2)C)CCNC(=O)CCC3(C)N=N3] | 0.3 | 0.1 | 0 | 0.2 | 1 | 1.6 | BRD4-BD1 (experimental hit status) [2, 10]: 0; KRAS-G12D (experimental hit status) [3, 10]: 0; STAT5B-NTD (experimental hit status) [6, 10]: 0
0.9 | CC1(CCC(=O)NCc2cncc3ccccc23)N=N1 [PhP008, N1=NC1(C)CCC(=O)NCc(cnc2)c(c23)cccc3] | 0.5 | 1 | 0 | 0.6 | 2.9 | 19.6 | BRD4-BD1 [2]: 0; KRAS-G12D [3]: 0; STAT5B-NTD [6]: 0
0.2 | CCC(NC(=O)CCC1(C)N=N1)c1ccccc1OC (stereo not drawn) [PhP032, N1=NC1(C)CCC(=O)NC(CC)c2ccccc2OC] | 0.3 | 0 | 0 | 0.3 | 2.9 | 1.9 | experimental hit status BRD4-BD1 [2]: 0; experimental hit status KRAS-G12D [3]: 0; experimental hit status STAT5B-NTD [6]: 0
